Assay results published in US4699926A, “Compounds useful in treating sickle cell anemia” (Merck & Co., Inc., priority 1986, dated 1987).
Counter-ions that a name gives are not always drawn.

Tests used:
sickle hemoglobin (HbS) = molecular target: T1, sickle hemoglobin (HbS) (Homo sapiens, UniProt P68871+P69905, E7V); test: Solubility assay (Csat assay): solubility of deoxygenated sickle hemoglobin in the presence of drug; type: biochemical
T1 construct: from tissue
Method: One major assay for evaluating antisickling agents involves measuring their effect on increasing the concentration at which sickle hemoglobin forms a gel. This is called the solubility or Csat assay.
The solubility assay (Csat assay) measures the ability of a compound to increase solubility of sickle hemoglobin (HbS).
In order to confirm the effectiveness of these compounds in reducing the effect of sickle cell anemia, tests were performed. The materials were tested according to the assay (Csat) developed by Hofrichter et al. (J. Hofrichter, P.D. Ross and W. A. Eaton Proc. Natl. Acad. Sci. USA, 73 30-35, 1976). This assay involves deoxygenation of concentrated sickle hemoglobin with dithionite in the presence of different concentrations of the drugs being tested Samples were then sealed in quartz epr tubes under anaerobic conditions and spun at about 150,000 × g for about 21/2 hours at about 35° C. in an ultracentrifuge. This procedure pellets the polymerized HbS (sickle hemoglobin) to the bottom of the tubes and the supernatant (soluble HbS) was measured in the laboratory as the cyanmethemoglobin derivative. […] Activity is reported as a ratio of the HbS solubility with the particular drug to HbS solubility with no drug i.e. control. The higher the ratio the greater degree of activity of the drug. The numbers in parenthesis are % increase in the solubility of HbS; again the higher the number, the greater the activity of the drug. The results ofthe compound of Example 9, is shown as a representative example of the compounds of this invention.

[1] = Tests of transport across erythrocyte membranes; type: in vitro ADME, human; details: red blood cell membrane
HbS = test: Chromatographic separation: tight covalent binding between HbS and the agent; design: species or system human

SMILES	activation at 3000 µM (sickle hemoglobin (HbS); 3 mM, read-out: % increase in Solubility (of HbS)) [%]	fold induction at 3000 µM (sickle hemoglobin (HbS); 3 mM, read-out: Ratio of the HbS Solubility with the Drug Compared to HbS Solubility Without Drug)	activation at 5000 µM (sickle hemoglobin (HbS); 5 mM, read-out: % increase in Solubility (of HbS)) [%]	fold induction at 5000 µM (sickle hemoglobin (HbS); 5 mM, read-out: Ratio of the HbS Solubility with the Drug Compared to HbS Solubility Without Drug)	activation at 7000 µM (sickle hemoglobin (HbS); 7 mM, read-out: % increase in Solubility (of HbS)) [%]	fold induction at 7000 µM (sickle hemoglobin (HbS); 7 mM, read-out: Ratio of the HbS Solubility with the Drug Compared to HbS Solubility Without Drug)	activation at 9000 µM (sickle hemoglobin (HbS); 9 mM, read-out: % increase in Solubility (of HbS)) [%]	fold induction at 9000 µM (sickle hemoglobin (HbS); 9 mM, read-out: Ratio of the HbS Solubility with the Drug Compared to HbS Solubility Without Drug)	transport across erythrocyte membranes (in words) [1]	covalent binding between the HbS and the therapeutic agent (in words) (HbS)	solubility ratio compared with other antisickling agents (in words) (sickle hemoglobin (HbS); low concentrations (5 mM), versus dichlorobenzyloxyacetic and p-bromobenzyloxyacetic acids)
C=C(CC)C(=O)c1ccc(OCC(=O)NCC(=O)O)c(Cl)c1Cl [Example 9, N-{[2,3-Dichloro-4-(2-methylenebutyryl)phenoxy]-acetyl}glycine]	27	1.11	36	1.15	56	1.22	82	1.33	–	–	–
C=C(CC)C(=O)c1ccc(OCC(=O)NCC(=O)O)c(Cl)c1Cl [sodium salt of N-{([2,3-dichloro-4-(2-methylenebutyryl)-phenoxy]acetyl)}glycine]	–	–	–	–	–	–	–	–	confirmed the ability of the agent to cross the red blood cell membrane and react with hemoglobin	desired tight covalent binding between the HbS and the therapeutic agent had occurred	higher solubility ratio than other antisickling agents, such as, dichlorobenzyloxyacetic and p-bromobenzyloxyacetic acids
